Test results taken from patent US4777250A, “Chymotrypsin model” (Northwestern University, priority 1986, dated 1988).

How the values were obtained:
[1] = Hydrolysis of esters by artificial chymotrypsin (Lineweaver-Burk); format: biochemical; settings: substrate m-t-butylphenyl acetate
Excerpt: The chymotrypsin model was examined for its catalytic activity in ester hydrolysis.
In FIG. 2 plot A represents the hydrolysis of p-nitrophenyl acetate by chymotrypsin and plot B represents the hydrolysis of m-t-butylphenyl acetate by the miniature organic model of chymotrypsin. [EA ]=1×10^-5 M; [EB ]=3×10^-5 M.
FIG. 3 depicts the relative stability of both β-benzyme/m-t-butylphenyl acetate and α-chymotrypsin/p-nitrophenyl acetate (O) at elevated temperatures. The real enzyme has 245 amino acids whose conformation can be changed by disrupting hydrogen bonds by elevated temperature. In contrast, the artificial chymotrypsin has no amino acids. Abbreviations are explained by the equation [formula] The stability was obtained by determining the catalytic rate constant at various temperatures at pH 8.0 for chymotrypsin, using 400 nm with a Varian 200 spectrophotometer. β-benzyme activity for the artificial enzyme was determned at its optimum pH 10.7 and 288 nm.

[2] = system: CC(=O)Oc1ccc([N+](=O)[O-])cc1; test: purified protein, by the assay type; settings: other: pH 8.0 (optimum pH), substrate p-nitrophenyl acetate, error limit ± 10%

Km ([1]; pH 10.7 (optimum pH), error limit ± 10%) [µM]	kcat/Km ([1]; pH 10.7) [M⁻¹ s⁻¹]	Compound	kcat ([1]; pH 10.7 (optimum pH), error limit ± 5%) [s⁻¹]	Km [2] [µM]	kcat [2] [s⁻¹]	kcat/Km [2] [M⁻¹ s⁻¹]
133	210	CC(=O)Oc1cccc(C(C)(C)C)c1 [m-t-butylphenyl acetate]	0.028			
		chymotrypsin (real enzyme, α-chymotrypsin) (Bos taurus)		40	0.011	275
